Laboratory results: ChEMBL document CHEMBL1201862, “PubChem BioAssay data set” (2004)
Active and inactive are the calls of the source.

Assays:
[1] = Luminescence Cell-Based Dose Retest to Confirm Inhibitors of Cancer Stem Cells. [Related pubchem assays (depositor defined):AID2717, AID2721]; type: functional; conditions: Homo sapiens
[2] = viability loss of HMLE_sh_eGFP cells – cell-based, luminescence, counter-screen for HMLE_sh_ECad selective toxicity project, dose response (AID 463074); type: functional, Homo sapiens;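 further: HMLE human mammary epithelial cells expressing control shRNA against eGFP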
[3] = biological target: Potassium voltage-gated channel subfamily KQT member 2 (Rattus norvegicus, UniProt O88943); assay: blockers of KCNQ2 channel current – cell-based, automated electrophysiology, set II, rat KCNQ2, dose response (AID 588637); type: functional
Chain of Potassium voltage-gated channel subfamily KQT member 2 (O88943 whole entry): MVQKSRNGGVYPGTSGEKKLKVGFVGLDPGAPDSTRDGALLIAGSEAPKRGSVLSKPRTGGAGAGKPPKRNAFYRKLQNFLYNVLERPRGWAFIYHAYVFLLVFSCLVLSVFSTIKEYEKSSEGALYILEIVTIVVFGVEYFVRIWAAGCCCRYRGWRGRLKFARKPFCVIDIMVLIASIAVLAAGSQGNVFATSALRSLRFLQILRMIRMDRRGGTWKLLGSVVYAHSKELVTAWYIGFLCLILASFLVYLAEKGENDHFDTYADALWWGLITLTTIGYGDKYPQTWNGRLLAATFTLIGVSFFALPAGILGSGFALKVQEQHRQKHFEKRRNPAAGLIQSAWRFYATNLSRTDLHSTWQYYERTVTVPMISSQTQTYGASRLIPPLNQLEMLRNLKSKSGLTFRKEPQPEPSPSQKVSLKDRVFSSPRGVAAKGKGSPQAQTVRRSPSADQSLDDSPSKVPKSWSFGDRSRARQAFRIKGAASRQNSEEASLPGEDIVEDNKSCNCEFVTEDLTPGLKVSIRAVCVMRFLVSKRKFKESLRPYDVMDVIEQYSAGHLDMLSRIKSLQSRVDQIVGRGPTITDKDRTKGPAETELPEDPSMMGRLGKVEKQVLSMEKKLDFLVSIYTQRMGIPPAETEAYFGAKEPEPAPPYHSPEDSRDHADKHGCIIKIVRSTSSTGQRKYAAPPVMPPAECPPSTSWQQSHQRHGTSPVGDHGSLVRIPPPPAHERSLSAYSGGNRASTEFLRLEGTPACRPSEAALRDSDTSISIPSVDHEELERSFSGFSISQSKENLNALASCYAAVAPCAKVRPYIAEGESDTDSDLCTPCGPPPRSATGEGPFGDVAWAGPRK

Escherichia coli [4] = assay: microbe, parasite or virus in culture
[5] = rescue of ΔF508 CFTR function, airway epithelium – human bronchial epithelial cells, plate reader, cherry-pick, two tests, dose response (AID 743267); type: functional, cell-based
HEK293 [6] = assay: membrane integrity loss in HEK cells – cell-based, fluorescence, cytotoxicity control for IDE activator project, dose response (AID 588440); type: functional; conditions: Homo sapiens;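 further: cytotoxicity by LDH release measuring loss of membrane integrity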
[7] = biological target: UDP-galactopyranose mutase (Mycobacterium tuberculosis, UniProt P9WIQ1); assay: Inhibitors of Mycobacterium tuberculosis UDP-galactopyranose mutase (UGM) enzyme Measured in Biochemical System Using Plate Reader - 2105-02_Inhibitor_Dose_CherryPick_Activity. [Related pubchem assays (depositor defined):AID504439]
Chain of UDP-galactopyranose mutase (P9WIQ1 whole entry): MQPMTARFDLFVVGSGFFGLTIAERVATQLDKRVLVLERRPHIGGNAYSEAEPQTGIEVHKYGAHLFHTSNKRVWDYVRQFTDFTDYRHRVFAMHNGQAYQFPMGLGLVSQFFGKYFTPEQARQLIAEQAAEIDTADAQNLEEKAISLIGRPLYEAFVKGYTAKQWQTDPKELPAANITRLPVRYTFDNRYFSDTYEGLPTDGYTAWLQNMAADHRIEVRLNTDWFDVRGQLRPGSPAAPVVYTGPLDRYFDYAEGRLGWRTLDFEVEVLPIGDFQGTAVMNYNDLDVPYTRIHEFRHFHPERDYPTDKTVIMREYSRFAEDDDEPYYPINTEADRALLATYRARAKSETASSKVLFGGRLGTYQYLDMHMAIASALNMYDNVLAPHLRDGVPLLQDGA

HEK293 [8] = assay: optical interference in Abeta FP readout, dose response, artefact control for IDE activator project, biochemical, fluorescence polarization (AID 588442); type: functional, cell-based; conditions: Homo sapiens
Beta Lactamase = Beta Lactamase (Pseudomonas aeruginosa, UniProt Q932Y6);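 further: confirmatory high-throughput screen measuring VIM-2 metallo-beta-lactamase inhibition by epi-absorbance in dose response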
Chain of Beta Lactamase (Q932Y6 whole entry): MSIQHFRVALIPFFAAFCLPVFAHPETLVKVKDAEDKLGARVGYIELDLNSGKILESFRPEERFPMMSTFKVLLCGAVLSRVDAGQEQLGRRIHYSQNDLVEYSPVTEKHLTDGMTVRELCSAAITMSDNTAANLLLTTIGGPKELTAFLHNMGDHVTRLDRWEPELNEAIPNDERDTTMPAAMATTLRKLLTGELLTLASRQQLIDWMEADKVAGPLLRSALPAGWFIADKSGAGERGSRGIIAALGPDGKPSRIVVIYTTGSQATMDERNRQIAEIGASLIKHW

ORF 73 = ORF 73 (Human herpesvirus 8, UniProt O40947); assay: KSHV LANA DNA-binding disruption – biochemical, fluorescence polarization, cherry-picked samples, dose response (AID 504725); design: species or system Human gammaherpesvirus 8;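 further: fluorescence polarization of a labeled DNA duplex reporting LANA DNA binding; potency is for inhibitors that block LANA binding to the DNA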
Chain of ORF 73 (O40947 whole entry): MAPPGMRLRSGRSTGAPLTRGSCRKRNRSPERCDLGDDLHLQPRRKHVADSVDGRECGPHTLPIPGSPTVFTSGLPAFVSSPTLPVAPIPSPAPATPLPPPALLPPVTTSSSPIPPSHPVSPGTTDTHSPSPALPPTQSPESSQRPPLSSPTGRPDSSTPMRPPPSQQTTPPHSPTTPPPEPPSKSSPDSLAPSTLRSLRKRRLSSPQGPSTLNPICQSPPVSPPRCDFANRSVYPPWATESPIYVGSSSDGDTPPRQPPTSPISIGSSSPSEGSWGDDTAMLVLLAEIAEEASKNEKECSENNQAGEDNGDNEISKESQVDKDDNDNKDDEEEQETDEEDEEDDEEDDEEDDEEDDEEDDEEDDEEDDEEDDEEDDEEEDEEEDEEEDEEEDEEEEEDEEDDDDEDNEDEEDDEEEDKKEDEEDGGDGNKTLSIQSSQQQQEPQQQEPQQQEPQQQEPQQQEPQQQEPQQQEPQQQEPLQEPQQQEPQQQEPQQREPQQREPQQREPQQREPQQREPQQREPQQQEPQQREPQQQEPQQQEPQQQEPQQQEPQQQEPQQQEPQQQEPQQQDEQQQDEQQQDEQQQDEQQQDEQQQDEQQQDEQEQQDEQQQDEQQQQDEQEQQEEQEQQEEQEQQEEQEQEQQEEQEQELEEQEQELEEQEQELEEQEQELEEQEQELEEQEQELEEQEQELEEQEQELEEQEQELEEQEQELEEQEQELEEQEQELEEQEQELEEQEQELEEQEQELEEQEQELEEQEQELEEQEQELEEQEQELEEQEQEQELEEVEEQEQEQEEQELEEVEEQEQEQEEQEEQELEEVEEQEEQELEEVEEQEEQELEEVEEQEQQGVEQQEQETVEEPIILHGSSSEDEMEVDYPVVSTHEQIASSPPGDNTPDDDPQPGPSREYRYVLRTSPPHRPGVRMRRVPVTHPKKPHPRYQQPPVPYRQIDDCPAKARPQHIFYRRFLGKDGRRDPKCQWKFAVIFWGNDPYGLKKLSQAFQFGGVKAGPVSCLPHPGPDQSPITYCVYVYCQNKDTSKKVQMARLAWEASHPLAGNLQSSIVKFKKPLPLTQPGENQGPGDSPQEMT

cells [9] = conditions: A549
[10] = viability loss in HepG2 liver cells – cell-based, ATP luminescence, cherry-pick, set 6, cytotoxicity control, dose response (AID 1053125); type: functional
Insulin-degrading enzyme [11] = biological target: T1, Insulin-degrading enzyme (Homo sapiens, UniProt P14735); assay: recombinant IDE activation, cell-free – biochemical, fluorescence polarization, counter-screen for IDE activator project, dose response (AID 588681)
T1 sequence (P14735 whole entry): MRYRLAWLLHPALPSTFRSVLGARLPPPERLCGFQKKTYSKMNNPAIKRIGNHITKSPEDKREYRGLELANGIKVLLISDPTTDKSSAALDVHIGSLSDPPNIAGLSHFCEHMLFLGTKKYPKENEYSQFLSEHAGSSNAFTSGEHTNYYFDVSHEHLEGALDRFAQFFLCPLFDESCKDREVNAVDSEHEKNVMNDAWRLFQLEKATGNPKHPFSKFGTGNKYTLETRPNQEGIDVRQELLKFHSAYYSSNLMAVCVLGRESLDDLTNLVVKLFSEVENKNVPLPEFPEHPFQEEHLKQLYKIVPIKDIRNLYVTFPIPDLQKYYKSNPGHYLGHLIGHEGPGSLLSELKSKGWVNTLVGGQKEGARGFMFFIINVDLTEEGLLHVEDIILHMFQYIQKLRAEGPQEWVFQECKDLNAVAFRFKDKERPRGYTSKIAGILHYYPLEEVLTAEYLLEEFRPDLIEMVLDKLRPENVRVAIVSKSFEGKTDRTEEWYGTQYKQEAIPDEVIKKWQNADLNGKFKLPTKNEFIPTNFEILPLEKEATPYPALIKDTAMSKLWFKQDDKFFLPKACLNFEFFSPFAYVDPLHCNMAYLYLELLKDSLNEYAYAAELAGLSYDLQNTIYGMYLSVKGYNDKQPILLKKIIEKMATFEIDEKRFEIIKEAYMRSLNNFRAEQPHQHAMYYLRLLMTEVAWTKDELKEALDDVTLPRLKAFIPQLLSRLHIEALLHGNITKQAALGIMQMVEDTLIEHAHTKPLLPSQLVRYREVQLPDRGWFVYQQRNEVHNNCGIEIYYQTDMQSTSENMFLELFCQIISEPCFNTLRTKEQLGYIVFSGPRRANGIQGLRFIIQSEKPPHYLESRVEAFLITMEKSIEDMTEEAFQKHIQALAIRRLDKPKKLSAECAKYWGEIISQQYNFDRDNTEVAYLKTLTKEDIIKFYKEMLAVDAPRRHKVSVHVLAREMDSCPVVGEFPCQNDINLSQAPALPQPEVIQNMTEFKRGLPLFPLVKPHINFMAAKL

Insulin-degrading enzyme [12] = biological target: T1, Insulin-degrading enzyme; assay: cellular IDE activation of Abeta substrate cleavage – fluorescence polarization, HEK cells, dose response (AID 588439); type: functional, cell-based
Escherichia coli [13] = assay: microbe, parasite or virus in culture; remark: listed apart in the source
HEK293 [14] = assay: cells; conditions: Homo sapiens
HEK293 [15] = assay: cells; conditions: Homo sapiens; remark: listed apart in the source
Jurkat [16] = assay: SAR Analysis of small molecule inhibitors of T-cell specific antigen receptor-induced NF-kB activation in a Jurkat cell line using a luminescence assay - Set 2. [Related pubchem assays (depositor defined):AID435003, AID435012, AID465]; type: functional, cell-based; conditions: Homo sapiens
HEK293 [17] = assay: SAR Analysis of small molecule inhibitors of T-cell specific antigen receptor-induced NF-kB activation in a HEK-293T cell line using a luminescence assay - Set 2. [Related pubchem assays (depositor defined):AID435003, AID435012, AID489026]; type: functional, cell-based; conditions: Homo sapiens
HEK293 [18] = assay: HEK293T cell viability loss, resazurin readout – resazurin fluorescence, cytotoxicity control for NF-kB activator project, SAR follow-up (AID 493251); type: functional, cell-based; conditions: Homo sapiens
[19] = luciferase reporter signal reduction – luminescence, H4-C neuroglioblastoma cells, dose response (AID 2458); type: functional, cell-based;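 further: H4 neuroglioblastoma cells stably carrying a luciferase reporter gene fusion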
BJ [20] = assay: BJ-TERT-LT-ST fibroblast viability loss – cell-based, RAS-independent, luminescence, dose response (AID 1935); type: functional; conditions: Homo sapiens;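 further: BJ fibroblasts immortalized with TERT plus LT and ST oncogenes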
BJ [21] = assay: BJ-TERT fibroblast viability loss – cell-based, RAS-independent, luminescence, dose response (AID 1933); type: functional; conditions: Homo sapiens
[22] = biological target: T2, Heat shock factor protein 1 (Mus musculus, UniProt P38532); assay: decrease of HSF1-responsive luciferase luminescence – cell-based, NIH3T3, dose retest, confirmation (AID 2382); type: functional;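 further: NIH3T3 fibroblasts with HSF1-driven luciferase reporter stressed by proteasome inhibitor MG132; luminescence from HSF1-driven luciferase expression after 8 hours of MG132 stress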
T2 sequence (P38532 whole entry): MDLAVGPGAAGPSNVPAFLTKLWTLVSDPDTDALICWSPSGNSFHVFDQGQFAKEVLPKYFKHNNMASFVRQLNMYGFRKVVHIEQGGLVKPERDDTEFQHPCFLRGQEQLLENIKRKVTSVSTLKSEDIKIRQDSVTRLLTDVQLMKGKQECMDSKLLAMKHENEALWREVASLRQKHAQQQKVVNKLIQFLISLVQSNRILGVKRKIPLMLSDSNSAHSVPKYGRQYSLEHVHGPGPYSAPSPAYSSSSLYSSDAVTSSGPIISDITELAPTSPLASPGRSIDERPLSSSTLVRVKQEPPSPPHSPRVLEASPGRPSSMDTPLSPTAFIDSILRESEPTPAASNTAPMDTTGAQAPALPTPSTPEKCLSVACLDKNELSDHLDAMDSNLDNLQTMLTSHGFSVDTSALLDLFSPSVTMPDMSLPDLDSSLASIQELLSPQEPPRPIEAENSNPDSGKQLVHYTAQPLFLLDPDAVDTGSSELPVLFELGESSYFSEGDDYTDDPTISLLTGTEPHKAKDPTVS

BJ [23] = assay: cells; type: functional, cell-based; conditions: Homo sapiens
[24] = blockers of HIV-1 ZM109 envelope-driven cell-cell fusion – HeLa effector, CEM target cells, luciferase, cherry-pick, dose response (AID 652058); type: functional, cell-based;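 further: luciferase signal from HIV-1 Env mediated cell-cell fusion of effector and target cells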
[25] = Luminescence Cell-Based Dose Confirmation HTS to Identify Inhibitors of Platelet Dense Granule Release. [Related pubchem assays: 1663 (Primary HTS), 1678 (Summary of Project)]; type: functional
[26] = viability loss in CEM21 cells – cell-based, CellTiter-Glo luminescence, cherry-picked, cytotoxicity control for viral fusion inhibitor project, dose response (AID 652042); type: functional;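 further: potency for signal decrease meaning cytotoxicity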
[27] = DRD fibroblast viability loss – cell-based, non-viral oncogenic, luminescence, dose response (AID 1934); type: functional; conditions: Homo sapiens
[28] = HIV-1 AD8 envelope cell-cell fusion blockers – cherry-pick, dose response (AID 652062); type: functional, cell-based;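 further: luciferase signal from cell-cell fusion driven by HIV-1 clade B AD8 Env; potency is for inhibitors of fusion seen as a drop in luminescence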
INS1 = assay: INS-1E survival protection against cytokine death – cell-based, luminescence, retest, dose response (AID 449756); type: functional; conditions: Rattus norvegicus;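 further: cell death triggered by IL-1 beta plus TNF-alpha plus IFN-gamma mixture; protective hits raise ATP signal compared with cytokine alone wells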
cells [29] = type: functional, cell-based
[30] = alpha-synuclein stem-loop translation blockers – luminescence, H4 neuroglioblastoma cells, dose confirmation, confirmation (AID 2454); type: functional, cell-based;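 further: H4 neuroglioblastoma cells carrying an alpha-synuclein 5'UTR luciferase reporter; potency for inhibition of the luciferase signal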
[31] = alpha-synuclein stem-loop luciferase translation blockers – H4 neuroglioma cells, luminescence, confirmation (AID 1988); type: functional, cell-based
[32] = HEK-293T viability loss, compound-treated – cell-based, uHTS hits, cytotoxicity control for B/T-cell NF-kB inhibitor project, dose response (AID 489019); type: functional;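 further: IC50 reflects cytotoxicity as loss of cell viability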
Jurkat [33] = assay: blockers of NF-kB activation in T cells – Jurkat, luciferase reporter, luminescence, B- and T-cell, dose response (AID 489004); type: functional, cell-based; conditions: Homo sapiens;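 further: NF-kB luciferase reporter Jurkat cells stimulated with PMA plus ionomycin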
[34] = luciferase reporter signal suppression in cells – H4 neuroglioma cells, luminescence, dose response (AID 1990); type: functional, cell-based
BJ [35] = assay: growth inhibition of engineered Ras-driven BJ cells – cell-based, alamar blue fluorescence, cherrypicked samples, dose response (AID 2631); type: functional; conditions: Homo sapiens;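 further: confirmatory dose-response assay in RAS-dependent BJ fibroblasts engineered with TERT, LT and ST, with cytotoxicity read by fluorescence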
[36] = blockers of HIV-1 envelope-mediated cell-cell fusion – cherry-pick, dose response (AID 652057); type: functional, cell-based
[37] = Luminescence Cell-Based Dose Response HTS to Identify Inhibitors of 5'UTR Stem-Loop Driven Prion Protein mRNA Translation in H4 Neuroglioblastoma Cells. [Related pubchem assays: 1827 (Project Summary), 1813 (Primary HTS)]; type: functional
[38] = off-target signal loss in HeLa-CEM21 co-culture – HeLa F-luc CTL cells, cherry-picked, counter-screen for HIV-1 Env fusion inhibitor project, dose response (AID 652040); type: functional, cell-based;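 further: potency for signal decrease marking cytotoxic or nonspecific inhibition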
[39] = biological target: Luciferin 4-monooxygenase (Photinus pyralis, UniProt P08659); assay: inhibition of purified Photinus pyralis luciferase – biochemical, luminescence, dose response (AID 1891)
Chain of Luciferin 4-monooxygenase (P08659 whole entry): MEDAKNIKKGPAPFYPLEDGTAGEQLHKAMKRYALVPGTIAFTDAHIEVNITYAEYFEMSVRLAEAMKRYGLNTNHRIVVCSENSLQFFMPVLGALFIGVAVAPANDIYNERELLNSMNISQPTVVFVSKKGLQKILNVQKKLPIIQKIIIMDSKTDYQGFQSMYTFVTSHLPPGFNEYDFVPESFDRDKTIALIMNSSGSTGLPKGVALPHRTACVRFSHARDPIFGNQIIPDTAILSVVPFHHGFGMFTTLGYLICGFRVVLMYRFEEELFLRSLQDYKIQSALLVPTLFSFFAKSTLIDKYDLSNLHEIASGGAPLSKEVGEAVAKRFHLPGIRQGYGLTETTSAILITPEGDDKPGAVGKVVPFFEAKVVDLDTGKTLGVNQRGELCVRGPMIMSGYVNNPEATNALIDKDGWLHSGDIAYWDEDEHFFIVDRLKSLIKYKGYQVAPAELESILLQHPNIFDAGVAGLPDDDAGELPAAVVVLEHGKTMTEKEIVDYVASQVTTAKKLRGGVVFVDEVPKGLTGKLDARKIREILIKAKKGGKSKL

COc1cccc(C(=O)NC(=S)Nc2ccccc2N2CCOCC2)c1
active: AC50 [1] 20.1 µM | AC50 [2] 33.5 µM | IC50 [3] 6.01 µM

Cc1cc(Cl)ccc1NC(=O)CN1CCCC1
active: AC50 (Escherichia coli [4]) 40 µM

Nc1ccc2ccc3cccc[n+]3c2c1.[O-][Cl+3]([O-])([O-])[O-]
active: AC50 [5] 21.4 µM | AC50 [7] 3.88 µM | EC50 (HEK293 [8]) 6.89 µM | IC50 (Beta Lactamase) 9.33 µM | AC50 (ORF 73) 1.3 µM | AC50 (cells [9]) 27.3 µM
inactive: IC50 (HEK293 [6]) > 89.2 µM | AC50 [10] > 52 µM | EC50 (Insulin-degrading enzyme [11]) > 54.7 µM | EC50 (Insulin-degrading enzyme [12]) > 54.7 µM

O=C(CCc1ccccc1)N1CCN(Cc2ccc(F)cc2Cl)CC1
active: AC50 (Escherichia coli [13]) 66.5 µM

COc1ccc(CNCCc2c[nH]c3ccccc23)c(OC)c1OC
inactive: EC50 (HEK293 [14]) > 59.6 µM | EC50 (HEK293 [15]) > 59.6 µM

COc1ccc(C)cc1NC(=O)c1ccc([N+](=O)[O-])o1
inactive: IC50 (HEK293 [17]) 75.6 µM | IC50 (HEK293 [18]) > 80 µM
active: IC50 (Jurkat [16]) 6.03 µM

Nc1nc(F)nc2c1ncn2[C@@H]1O[C@H](CO)[C@@H](O)[C@H]1O
active: EC50 [19] 0.199 µM | EC50 (BJ [20]) 0.46 µM | EC50 (BJ [21]) 0.124 µM | EC50 [22] 5.46 µM | EC50 (BJ [23]) 1.35 µM | AC50 [24] < 0.26 µM | EC50 [25] < 0.088 µM | AC50 [26] 0.271 µM | EC50 [27] 0.674 µM | AC50 [28] 1.92 µM | AC50 (INS1) 1.35 µM | EC50 (cells [29]) 0.084 µM | EC50 [30] 0.07 µM | EC50 [31] < 0.1 µM | IC50 (Jurkat [33]) 2.35 µM | EC50 [34] 0.242 µM | EC50 (BJ [35]) 0.348 µM | AC50 [36] 0.341 µM | EC50 [37] < 0.1 µM | AC50 [38] 1.4 µM
> 112 µM (not active): EC50 [39]
inactive: IC50 [32] > 80 µM
